Our source for the endotoxin neutralisation values is patent US20260242413A1, “ENDOTOXIN NE[…]” (AMFERIA AB, priority 2023, published 2026).

Where no end group is shown, it is not given here.

This experiment has as its system E. coli (CCUG 29300). Kind of experiment: Endotoxin binding of AMP functionalised crosslinked hydrogel particle dispersion, chromogenic LAL endotoxin assay. It is filed as cell-based. Conditions: E. coli 10^6 CFU/ml, 37° C., 1 hour, 3 hours and 24 hours, FIG. 2 and 3.

Turning to “RRPRPRPRPWWWW-NH2 [RRP9W4N, PRELP derived amphiphilic antimicrobial peptide, free in PBS solution]”, the endotoxin neutralisation entry is given as “neutralised endotoxins in all measured durations of incubation”.
